Data published in PubChem BioAssay (NCI).
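Cells were grown in 96-well plates and exposed to each compound for 48 hours at five concentrations; endpoints were interpolated linearly between bracketing concentrations, or set to the highest concentration if not reached. At the GI50, growth is halved. The concentration for full growth arrest is given as TGI.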

Assays:
Experiment in all cases: inhibition of tumour cell growth, NCI panel, 48 h
HOP-62 NSCLC = test system: HOP-62 NSCLC
K-562 leukemia = test system: K-562 leukemia
LOX IMVI melanoma = test system: LOX IMVI melanoma
MOLT-4 leukemia = test system: MOLT-4 leukemia
OVCAR-3 ovarian = test system: OVCAR-3 ovarian
SF-268 CNS = test system: SF-268 CNS
SK-MEL-28 melanoma = test system: SK-MEL-28 melanoma
SK-MEL-5 melanoma = test system: SK-MEL-5 melanoma
SNB-19 CNS = test system: SNB-19 CNS
SW-620 colon = test system: SW-620 colon

SMILES	TGI (HOP-62 NSCLC) [µM]	TGI (K-562 leukemia) [µM]	TGI (LOX IMVI melanoma) [µM]	TGI (MOLT-4 leukemia) [µM]	TGI (OVCAR-3 ovarian) [µM]	TGI (SF-268 CNS) [µM]	TGI (SK-MEL-28 melanoma) [µM]	TGI (SK-MEL-5 melanoma) [µM]	TGI (SNB-19 CNS) [µM]	TGI (SW-620 colon) [µM]	GI50 (LOX IMVI melanoma) [µM]	GI50 (OVCAR-3 ovarian) [µM]	GI50 (SK-MEL-28 melanoma) [µM]	GI50 (SK-MEL-5 melanoma) [µM]	GI50 (SW-620 colon) [µM]	GI50 (HOP-62 NSCLC) [µM]	GI50 (K-562 leukemia) [µM]	GI50 (SF-268 CNS) [µM]	GI50 (SNB-19 CNS) [µM]	GI50 (MOLT-4 leukemia) [µM]
CC(C)c1cccc(C(C)C)c1NC(=S)Nc1ccccc1	> 100	> 100	> 100	> 100	> 100	> 100	> 100	> 100	> 100	> 100	–	–	–	–	–	–	–	–	–	–
CCCCCCCCCCCCCCCc1ccc(C(=O)C[n+]2ccccc2)cc1	–	–	1.19	–	3.64	–	2.99	3.93	–	1.54	0.348	1.79	1.21	1.44	0.394	–	–	–	–	–
Nc1cccc2cc(S(=O)(=O)Nc3ccc(C(=O)O)cc3)ccc12	> 100	> 100	> 100	–	> 100	> 100	> 100	> 100	> 100	> 100	–	–	–	–	–	–	–	–	–	–
N=C(N)c1ccc(-c2ccc(-c3ccccc3)o2)cc1	5.13	4.99	–	–	13.4	4.28	3.35	3.72	6.83	3.32	–	3.3	1.67	1.94	1.72	1.98	2.22	1.96	2.54	–
CCN(CC)CCSc1nc2c([N+](=O)[O-])cccc2[nH]1	–	> 100	> 100	> 100	> 100	–	> 100	> 100	–	> 100	–	–	–	–	–	–	–	–	–	–
COc1ccc(C2C(Cl)C(=O)N2NC(=O)c2ccc(NC(C)=O)cc2)cc1OC (stereo unspecified)	> 100	> 100	–	> 100	> 100	> 100	> 100	> 100	> 100	> 100	–	–	–	–	–	–	–	–	–	–
O=C(Nc1ccc(-n2cc(-c3ccncc3)c(-c3ccc(O)c(Cl)c3)n2)cc1)c1ccc(Cl)c(Cl)c1	> 32.5	> 32.5	2.88	> 32.5	> 32.5	> 32.5	> 32.5	> 32.5	> 32.5	> 32.5	0.779	2.11	> 32.5	1	2.08	2	0.966	> 32.5	2.67	1.37
CSc1nc(NC2OC(CO)C(O)C(O)C2O)c(N)c(=O)n1C (stereo unspecified)	> 100	> 100	> 100	> 100	> 100	> 100	> 100	> 100	> 100	> 100	–	–	–	–	–	–	–	–	–	–
CC(C)=CCC/C(C)=C/CC/C(C)=C/C(O)c1ccccc1 (stereo unspecified)	34.3	> 100	35.9	–	36.3	35.3	–	30.2	35.3	38.8	–	–	–	–	–	–	–	–	–	–
NC(=O)OCc1c(O)c2c(c(O)c1COC(N)=O)C(=O)C=CC2=O	> 100	> 100	–	> 100	> 100	> 100	> 100	> 100	–	> 100	–	–	–	–	–	–	–	–	–	–
CNC1=C(C)C(=O)C2=C(C1=O)C(COC(N)=O)C1(OC)C3NC3CN21 (stereo unspecified)	2.38	> 100	1.41	> 100	21.6	12.9	6.43	0.268	–	> 100	–	–	–	–	–	–	–	–	–	–
